{"source": "patent US6512000B1", "about": "“Aminocarbonyl-substituted benzimidazoles having tryptase-inhibitory activity” (Boehringer Ingelheim Pharma KG, priority 1999, dated 2003)", "target": "T1, rh beta tryptase (Homo sapiens, UniProt P20231)", "T1 construct": "purchased Promega", "T1 sequence (P20231 31-275)": "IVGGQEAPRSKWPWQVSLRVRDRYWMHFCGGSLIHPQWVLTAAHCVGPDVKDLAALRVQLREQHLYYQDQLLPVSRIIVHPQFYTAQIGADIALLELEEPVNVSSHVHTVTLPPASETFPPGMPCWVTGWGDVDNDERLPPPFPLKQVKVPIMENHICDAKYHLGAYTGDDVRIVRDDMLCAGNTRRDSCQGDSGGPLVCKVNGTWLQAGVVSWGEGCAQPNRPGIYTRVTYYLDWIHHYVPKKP", "test": "Tryptase inhibition test (cleavage of N-p-tosyl-Gly-Pro-Lys-para-nitroaniline, p-nitroaniline measured at 405 nm)", "assay_type": "biochemical", "settings": "pH 7.4, 37° C.; for % Inhibition (10 μM): inhibition of rh beta tryptase at 10 μM test substance, substrate N-p-tosyl-Gly-Pro-Lys-para-nitroaniline 0.6 mM, 5 minutes; for pIC50: concentration at which 50% of the tryptase enzyme activity is inhibited, substrate 0.6 mM", "protocol": "The compounds according to the invention are characterised by their tryptase-inhibiting activity. This ability to inhibit tryptase was investigated using the test described below.\nThe measurement is carried out in Tris HCl buffer (100 mM), which additionally contains calcium (5 mM) and heparin ([…]), at pH 7.4. The standard used is rh beta tryptase which may be obtained commercially from Promega, for example. The substrate used is N-p-tosyl-Gly-Pro-Lys-para-nitroaniline in a concentration of 0.6 mM. The substrate is digested with tryptase to form p-nitroaniline which can be measured at 405 nm. Usually, an incubation period of 5 minutes and an incubation temperature of 37° C. are chosen. The enzyme activity used is 0.91 U/ml. The measurements are carried out in an Autoanalyser (Cobas Bio) made by Hofmann LaRoche. The potential inhibitory substances are used in concentrations of 10 μM in the screening, the inhibition of the tryptase being given in percent. The IC50 is determined at over 70% inhibition (concentration at which 50% of the enzyme activity is inhibited). After 5 minutes' pre-incubation of the potential inhibitory substances, the substrate is added to start the reaction, the formation of p-nitroaniline being taken as a measurement of the enzyme activity after 5 minutes, after testing the linearity.\nThe data obtained after the above test has been carried out (% inhibition) are assembled in Table 25 for the compounds according to the invention. The IC50 values obtained for the compounds according to the invention can be found in Table 26.\nTable 26 contains the IC50 binding values obtained for the compounds according to the invention. These were measured as described above.", "note": "pIC50: −log10 of the molar value.", "data": [{"substance": "2-[2-(4-amidinophenyl)ethyl]-1-(2 thiophenyl-methyl)-benzimidazol-5-yl-carboxylic acid-N-[4-(amino-methyl)-benzyl]-N-(3-pyridyl)-amide [Example 147]", "values": [{"measurement": "% Inhibition (10 μM)", "value": 51, "unit": "%"}]}, {"substance": "2-[2-(4-amidinophenyl)ethyl]-1-(2-cyclohexylethyl)-benzimidazol-5-yl-carboxylic acid-N-[4-(amino-methyl)-benzyl]-N-(2-pyridyl)-amide [Example 121]", "values": [{"measurement": "% Inhibition (10 μM)", "value": 52, "unit": "%"}]}, {"substance": "2-[2-(4-amidinophenyl)ethyl]-1-(2-cyclohexylethyl)-benzimidazol-5-yl-carboxylic acid-N-[4-(amino-methyl)-benzyl]-N-(3-pyridyl)-amide [Example 137]", "values": [{"measurement": "% Inhibition (10 μM)", "value": 52, "unit": "%"}]}, {"substance": "2-[2-(4-amidinophenyl)ethyl]-1-(2-phenylethyl)-benzimidazol-5-yl-carboxylic acid-N-[4-(amino-methyl)-benzyl]-N-(2-pyridyl)-amide [Example 123]", "values": [{"measurement": "% Inhibition (10 μM)", "value": 60, "unit": "%"}]}, {"substance": "2-[2-(4-amidinophenyl)ethyl]-1-(2-phenylethyl)-benzimidazol-5-yl-carboxylic acid-N-[4-(amino-methyl)-benzyl]-N-(3-pyridyl)-amide [Example 139]", "values": [{"measurement": "% Inhibition (10 μM)", "value": 76, "unit": "%"}]}, {"substance": "2-[2-(4-amidinophenyl)ethyl]-1-(2-thiophenyl-methyl)-benzimidazol-5-yl-carboxylic acid-N-(2-aminoethyl)-N-(2-pyridyl)-amide [Example 323]", "values": [{"measurement": "% Inhibition (10 μM)", "value": 59, "unit": "%"}]}, {"substance": "2-[2-(4-amidinophenyl)ethyl]-1-(3-di-n-butylaminopropyl)-benzimidazol-5-yl-carboxylic acid-N-[4-(amino-methyl)-benzyl]-N-(2-pyridyl)-amide [Example 119]", "values": [{"measurement": "% Inhibition (10 μM)", "value": 57, "unit": "%"}]}, {"substance": "2-[2-(4-amidinophenyl)ethyl]-1-(3-di-n-butylaminopropyl)-benzimidazol-5-yl-carboxylic acid-N-[4-(amino-methyl)-benzyl]-N-(3-pyridyl)-amide [Example 135]", "values": [{"measurement": "% Inhibition (10 μM)", "value": 64, "unit": "%"}]}, {"substance": "2-[2-(4-amidinophenyl)ethyl]-1-(3-ethoxypropyl)-benzimidazol-5-yl-carboxylic acid-N-(2-aminoethyl)-N-(3-pyridyl)-amide [Example 326]", "values": [{"measurement": "pIC50", "value": 6.54}, {"measurement": "% Inhibition (10 μM)", "value": 51, "unit": "%"}]}, {"substance": "2-[2-(4-amidinophenyl)ethyl]-1-(3-ethoxypropyl)-benzimidazol-5-yl-carboxylic acid-N-[4-(amino-methyl)-benzyl]-N-(2-pyridyl)-amide [Example 118]", "values": [{"measurement": "pIC50", "value": 6.52}, {"measurement": "% Inhibition (10 μM)", "value": 71, "unit": "%"}]}, {"substance": "2-[2-(4-amidinophenyl)ethyl]-1-(3-ethoxypropyl)-benzimidazol-5-yl-carboxylic acid-N-[4-(amino-methyl)-benzyl]-N-(3-pyridyl)-amide [Example 134]", "values": [{"measurement": "pIC50", "value": 6.64}, {"measurement": "% Inhibition (10 μM)", "value": 69, "unit": "%"}]}, {"substance": "2-[2-(4-amidinophenyl)ethyl]-1-(4-methylbenzyl)-benzimidazol-5-yl-carboxylic acid-N-[4-(amino-methyl)-benzyl]-N-(2-pyridyl)-amide [Example 125]", "values": [{"measurement": "% Inhibition (10 μM)", "value": 63, "unit": "%"}]}, {"substance": "2-[2-(4-amidinophenyl)ethyl]-1-(tetrahydrofuran-2-yl-methyl)-benzimidazol-5-yl-carboxylic acid-N-(2-aminoethyl)-N-(2-pyridyl)-amide [Example 322]", "values": [{"measurement": "% Inhibition (10 μM)", "value": 51, "unit": "%"}]}, {"substance": "2-[2-(4-amidinophenyl)ethyl]-1-(tetrahydrofuran-2-yl-methyl)-benzimidazol-5-yl-carboxylic acid-N-[4-(amino-methyl)-benzyl]-N-(2-pyridyl)-amide [Example 130]", "values": [{"measurement": "% Inhibition (10 μM)", "value": 77, "unit": "%"}]}, {"substance": "2-[2-(4-amidinophenyl)ethyl]-1-(tetrahydrofuran-2-yl-methyl)-benzimidazol-5-yl-carboxylic acid-N-[4-(amino-methyl)-benzyl]-N-(3-pyridyl)-amide [Example 146]", "values": [{"measurement": "% Inhibition (10 μM)", "value": 65, "unit": "%"}]}, {"substance": "2-[2-(4-amidinophenyl)ethyl]-1-[2-(4-chlorophenyl)ethyl]-benzimidazol-5-yl-carboxylic acid-N-[4-(amino-methyl)-benzyl]-N-(2-pyridyl)-amide [Example 124]", "values": [{"measurement": "% Inhibition (10 μM)", "value": 55, "unit": "%"}]}, {"substance": "2-[2-(4-amidinophenyl)ethyl]-1-[2-(4-chlorophenyl)ethyl]-benzimidazol-5-yl-carboxylic acid-N-[4-(amino-methyl)-benzyl]-N-(3-pyridyl)-amide [Example 140]", "values": [{"measurement": "% Inhibition (10 μM)", "value": 63, "unit": "%"}]}, {"substance": "2-[2-(4-amidinophenyl)ethyl]-1-[3-(benzylcarbonylamino)-propyl]-benzimidazol-5-yl-carboxylic acid-N-(2-aminoethyl)-N-(2-pyridyl)-amide [Example 312]", "values": [{"measurement": "% Inhibition (10 μM)", "value": 55, "unit": "%"}]}, {"substance": "2-[2-(4-amidinophenyl)ethyl]-1-[3-(benzylcarbonylamino)-propyl]-benzimidazol-5-yl-carboxylic acid-N-[4-(amino-methyl)-benzyl]-N-(2-pyridyl)-amide [Example 120]", "values": [{"measurement": "% Inhibition (10 μM)", "value": 74, "unit": "%"}]}, {"substance": "2-[2-(4-amidinophenyl)ethyl]-1-[3-(benzylcarbonylamino)-propyl]-benzimidazol-5-yl-carboxylic acid-N-[4-(amino-methyl)-benzyl]-N-(3-pyridyl)-amide [Example 136]", "values": [{"measurement": "% Inhibition (10 μM)", "value": 74, "unit": "%"}]}, {"substance": "2-[2-(4-amidinophenyl)ethyl]-1-[3-(morpholin-4-yl)-propyl]-benzimidazol-5-yl-carboxylic acid-N-[4-(amino-methyl)-benzyl]-N-(2-fluorobenzyl)-amide [Example 225]", "values": [{"measurement": "% Inhibition (10 μM)", "value": 58, "unit": "%"}]}, {"substance": "2-[2-(4-amidinophenyl)ethyl]-1-[3-(morpholin-4-yl)-propyl]-benzimidazol-5-yl-carboxylic acid-N-[4-(amino-methyl)-benzyl]-N-(2-pyridyl)-amide [Example 129]", "values": [{"measurement": "% Inhibition (10 μM)", "value": 63, "unit": "%"}]}, {"substance": "2-[2-(4-amidinophenyl)ethyl]-1-[3-(morpholin-4-yl)-propyl]-benzimidazol-5-yl-carboxylic acid-N-[4-(amino-methyl)-benzyl]-N-(3-pyridyl)-amide [Example 145]", "values": [{"measurement": "% Inhibition (10 μM)", "value": 73, "unit": "%"}]}, {"substance": "2-[2-(4-amidinophenyl)ethyl]-1-cyclopropylmethyl-benzimidazol-5-yl-carboxylic acid-N-(2-aminoethyl)-N-(2-pyridyl)-amide [Example 314]", "values": [{"measurement": "pIC50", "value": 6.11}, {"measurement": "% Inhibition (10 μM)", "value": 61, "unit": "%"}]}, {"substance": "2-[2-(4-amidinophenyl)ethyl]-1-cyclopropylmethyl-benzimidazol-5-yl-carboxylic acid-N-(2-aminoethyl)-N-(3-pyridyl)-amide [Example 330]", "values": [{"measurement": "pIC50", "value": 6.30}, {"measurement": "% Inhibition (10 μM)", "value": 54, "unit": "%"}]}, {"substance": "2-[2-(4-amidinophenyl)ethyl]-1-cyclopropylmethyl-benzimidazol-5-yl-carboxylic acid-N-[4-(amino-methyl)-benzyl]-N-(2-pyridyl)-amide [Example 122]", "values": [{"measurement": "pIC50", "value": 6.29}, {"measurement": "% Inhibition (10 μM)", "value": 70, "unit": "%"}]}, {"substance": "2-[2-(4-amidinophenyl)ethyl]-1-cyclopropylmethyl-benzimidazol-5-yl-carboxylic acid-N-[4-(amino-methyl)-benzyl]-N-(3-pyridyl)-amide [Example 138]", "values": [{"measurement": "pIC50", "value": 6.37}, {"measurement": "% Inhibition (10 μM)", "value": 72, "unit": "%"}]}, {"substance": "2-[2-(4-amidinophenyl)ethyl]-1-{3-[4-(2-methylphenyl)-piperazin-1-yl]-propyl}-benzimidazol-5-yl-carboxylic acid-N-[4-(amino-methyl)-benzyl]-N-(2-pyridyl)-amide [Example 128]", "values": [{"measurement": "% Inhibition (10 μM)", "value": 51, "unit": "%"}]}]}
